The results in this text go back to ChEMBL document CHEMBL5625191, “A review of progress in o-aminobenzamide-based HDAC inhibitors with dual targeting capabilities for cancer therapy” (Eur J Med Chem, 2023).

Test [1] addresses T1, Histone deacetylase 2 (Homo sapiens, UniProt Q92769). In words: Inhibition of HDAC2 (unknown origin).
Test [2] has as its target T2, Histone deacetylase 1 (Homo sapiens, UniProt Q13547). In words: Inhibition of HDAC1 (unknown origin).
For test [3], the system named is HCT-116. The experiment in a line: Antiproliferative activity against human HCT-116 cells assessed as inhibition of cell growth. Format: functional, cell-based.
Test [4] concerns the target Bromodomain-containing protein 4 (Homo sapiens, UniProt O60885). In words: Inhibition of BRD4 BD1 (unknown origin).
In test [5] the target is Histone deacetylase. The experiment in a line: Inhibition of HDAC (unknown origin). Type of test: protein assay, Homo sapiens.
For test [6], the system named is HCT-116. The experiment in a line: Antiproliferative activity against human HCT-116 cells assessed as inhibition of cell growth incubated for 48 hrs by MTT assay. Format: functional, cell-based. The conditions noted are these: HCT-116, 48 h.
Test [7] addresses T2, Histone deacetylase 1. In words: Inhibition of HDAC1 in human HeLa nuclear extract using Boc-Lys(Ac)-AMC or Boc-Lys(Tfa)-AMC as substrate preincubated for 5 mins followed by substrate addition and measured after 30 mins by fluorescence assay. Format: cell-free.
In test [8] the target is T1, Histone deacetylase 2. In words: Inhibition of HDAC2 in human HeLa nuclear extract using Boc-Lys(Ac)-AMC or Boc-Lys(Tfa)-AMC as substrate preincubated for 5 mins followed by substrate addition and measured after 30 mins by fluorescence assay. Format: cell-free.
The next test addresses Histone deacetylase 3 (Homo sapiens, UniProt O15379). The experiment in a line: Inhibition of HDAC3 in human HeLa nuclear extract using Boc-Lys(Ac)-AMC or Boc-Lys(Tfa)-AMC as substrate preincubated for 5 mins followed by substrate addition and measured after 30 mins by fluorescence assay. Format: cell-free.
Another test concerns HeLa. The experiment in a line: Antiproliferative activity against human HeLa cells assessed as inhibition of cell growth incubated for 48 hrs by MTT assay. Format: functional, cell-based. A general note: Tetrazolium dyes change colour on reduction, which living cells bring about.
The subject of the next test is PC-3. In words: Antiproliferative activity against human PC-3 cells assessed as inhibition of cell growth incubated for 48 hrs by MTT assay. Type of test: functional, cell-based. The note with it: PC-3, 48 h.
The next test relates to HEL. The experiment in a line: Antiproliferative activity against human HEL cells assessed as inhibition of cell growth incubated for 48 hrs by MTT assay. Type of test: functional, cell-based.
Another test deals with MOLT-4. The experiment in a line: Antiproliferative activity against human MOLT-4 cells assessed as inhibition of cell growth incubated for 48 hrs by MTT assay. Format: functional, cell-based. The conditions noted are these: MOLT-4, 48 h.
Another test concerns Jurkat. The experiment in a line: Antiproliferative activity against human Jurkat cells assessed as inhibition of cell growth incubated for 48 hrs by MTT assay. Format: functional, cell-based.
In test [9] the test system is A549. In words: Antiproliferative activity against human A549 cells assessed as inhibition of cell growth incubated for 48 hrs by MTT assay. Type of test: functional, cell-based. The note with it: A549, 48 h.
The next test deals with RPMI-8226. In words: Antiproliferative activity against human RPMI-8226 cells assessed as inhibition of cell growth incubated for 72 hrs by XTT assay. Type of test: functional, cell-based. The note with it: RPMI-8226, 72 h.
Test [10] has as its target Histone deacetylase (Homo sapiens) (UniProt Q13547+O15379+Q9UBN7+Q92769+Q9UQL6+Q8WUI4+Q9BY41+Q96DB2+P56524+Q9UKV0+Q969S8). The experiment in a line: Inhibition of HDAC in human RPMI-8226 cells at 10 uM incubated for 8 hrs relative to control. Format: cell-based.
Test [11] in a line: Antiproliferative activity against human Bortezomib-resistant RPMI-8226 cells assessed as inhibition of cell growth incubated for 72 hrs by XTT assay. Type of test: functional, cell-based. The conditions noted are these: Bortezomib-resistant RPMI-8226, 72 h.
The next test relates to CT26. In words: Antitumor activity against mouse CT26 cells xenografted in mouse assessed as reduction in tumor volume. Type of test: functional. On the set-up: scale not given: the % may be the effect or the level left.
The subject of test [12] is A549. In words: Antiproliferative activity against human A549 cells assessed as inhibition of cell growth incubated for 48 hrs by CCK-8 assay. Format: functional, cell-based. The note with it: A549, 48 h.
The target of test [13] is Histone deacetylase. In words: Inhibition of HDAC in human HeLa nuclear extract using Boc-Lys(Ac)-AMC or Boc-Lys(Tfa)-AMC as substrate preincubated for 5 mins followed by substrate addition and measured after 30 mins by fluorescence assay. Format: cell-free.
A further test has as its target Ephrin type-A receptor 2 (Homo sapiens, UniProt P29317). In words: Inhibition of EphA2 (unknown origin) incubated for 30 mins by TR-FRET assay. Background: Time-resolved FRET reads energy transfer from a long-lived donor to a nearby acceptor.
In a further test the test system is MCF7. In words: Antiproliferative activity against human MCF7 cells assessed as inhibition of cell growth incubated for 48 hrs by MTT assay. Format: functional, cell-based. The conditions noted are these: MCF7, 48 h.
Test [14] deals with K562. In words: Antiproliferative activity against human K562 cells assessed as inhibition of cell growth incubated for 48 hrs by MTT assay. Type of test: functional, cell-based. The conditions noted are these: K562, 48 h.
Test [15] relates to K562. The experiment in a line: Antiproliferative activity against human K562 cells assessed as inhibition of cell growth by MTT assay. Format: functional, cell-based.

T2 sequence (Q13547 whole entry): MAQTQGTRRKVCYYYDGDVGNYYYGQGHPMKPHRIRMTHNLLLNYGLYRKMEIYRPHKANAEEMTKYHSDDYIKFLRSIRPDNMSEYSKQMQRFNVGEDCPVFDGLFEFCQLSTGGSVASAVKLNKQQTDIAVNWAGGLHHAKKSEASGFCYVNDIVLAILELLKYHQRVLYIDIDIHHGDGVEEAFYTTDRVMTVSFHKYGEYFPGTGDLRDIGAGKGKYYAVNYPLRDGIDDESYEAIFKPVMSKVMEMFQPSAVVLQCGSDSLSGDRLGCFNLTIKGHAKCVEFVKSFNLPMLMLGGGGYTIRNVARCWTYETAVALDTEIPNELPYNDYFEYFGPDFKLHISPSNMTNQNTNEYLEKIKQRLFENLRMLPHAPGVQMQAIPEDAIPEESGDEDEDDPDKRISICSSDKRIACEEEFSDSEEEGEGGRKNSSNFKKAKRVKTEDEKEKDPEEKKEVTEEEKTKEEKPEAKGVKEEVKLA
T1 sequence (Q92769 whole entry): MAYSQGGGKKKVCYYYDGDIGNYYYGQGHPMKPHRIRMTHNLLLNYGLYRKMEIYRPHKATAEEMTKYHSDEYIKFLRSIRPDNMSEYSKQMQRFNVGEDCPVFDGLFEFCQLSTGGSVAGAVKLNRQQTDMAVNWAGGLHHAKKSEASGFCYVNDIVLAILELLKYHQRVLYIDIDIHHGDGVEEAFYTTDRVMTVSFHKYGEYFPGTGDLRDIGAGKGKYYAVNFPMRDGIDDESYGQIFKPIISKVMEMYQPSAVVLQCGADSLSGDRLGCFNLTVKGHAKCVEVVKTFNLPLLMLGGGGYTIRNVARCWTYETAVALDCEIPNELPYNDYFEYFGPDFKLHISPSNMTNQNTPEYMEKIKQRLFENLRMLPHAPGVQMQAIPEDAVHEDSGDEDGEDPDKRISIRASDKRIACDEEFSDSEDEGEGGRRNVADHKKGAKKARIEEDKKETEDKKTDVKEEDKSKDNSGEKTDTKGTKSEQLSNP
Chain of Ephrin type-A receptor 2 (P29317 whole entry): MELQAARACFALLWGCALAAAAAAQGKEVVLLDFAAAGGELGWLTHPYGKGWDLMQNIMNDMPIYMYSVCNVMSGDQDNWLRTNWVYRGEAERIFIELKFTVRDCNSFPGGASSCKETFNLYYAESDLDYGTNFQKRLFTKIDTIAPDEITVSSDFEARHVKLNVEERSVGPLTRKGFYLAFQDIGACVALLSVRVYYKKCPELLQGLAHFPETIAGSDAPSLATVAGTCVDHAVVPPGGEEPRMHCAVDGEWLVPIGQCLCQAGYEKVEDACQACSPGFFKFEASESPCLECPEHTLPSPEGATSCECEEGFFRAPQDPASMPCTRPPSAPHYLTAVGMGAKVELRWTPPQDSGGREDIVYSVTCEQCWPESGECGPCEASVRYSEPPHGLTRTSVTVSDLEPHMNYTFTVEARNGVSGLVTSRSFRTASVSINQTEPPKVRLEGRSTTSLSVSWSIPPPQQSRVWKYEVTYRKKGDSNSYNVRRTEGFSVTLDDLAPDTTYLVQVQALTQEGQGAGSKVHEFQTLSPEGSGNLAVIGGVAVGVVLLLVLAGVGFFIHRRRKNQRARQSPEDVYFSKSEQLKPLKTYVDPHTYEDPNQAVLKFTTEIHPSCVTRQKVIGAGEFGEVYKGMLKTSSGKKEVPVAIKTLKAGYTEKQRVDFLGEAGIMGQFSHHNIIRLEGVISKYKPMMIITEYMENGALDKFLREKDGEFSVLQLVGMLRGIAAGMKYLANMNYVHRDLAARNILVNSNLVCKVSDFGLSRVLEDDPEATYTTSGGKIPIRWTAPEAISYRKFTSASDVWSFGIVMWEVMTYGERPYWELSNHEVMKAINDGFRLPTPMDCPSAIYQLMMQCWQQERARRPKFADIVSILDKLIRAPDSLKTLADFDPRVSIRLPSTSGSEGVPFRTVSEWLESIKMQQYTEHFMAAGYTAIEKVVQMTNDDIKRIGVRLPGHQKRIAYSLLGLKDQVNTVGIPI
Chain of Histone deacetylase 3 (O15379 whole entry): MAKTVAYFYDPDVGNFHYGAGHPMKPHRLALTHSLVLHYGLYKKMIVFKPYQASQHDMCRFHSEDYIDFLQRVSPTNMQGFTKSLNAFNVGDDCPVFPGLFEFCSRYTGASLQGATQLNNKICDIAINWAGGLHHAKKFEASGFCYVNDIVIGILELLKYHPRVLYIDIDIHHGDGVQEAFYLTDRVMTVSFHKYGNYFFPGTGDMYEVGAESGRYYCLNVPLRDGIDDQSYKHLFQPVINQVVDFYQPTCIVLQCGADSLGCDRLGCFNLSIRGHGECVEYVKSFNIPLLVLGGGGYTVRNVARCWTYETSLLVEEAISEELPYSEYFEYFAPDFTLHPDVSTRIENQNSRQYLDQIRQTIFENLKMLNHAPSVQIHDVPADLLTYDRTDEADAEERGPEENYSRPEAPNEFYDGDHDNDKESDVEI

For orientation: IC50 means the midpoint of a concentration-inhibition curve. For the compound `CN1c2ccc(NCc3ccc(C(=O)Nc4ccccc4N)cc3)cc2C(=O)N2CCc3c([nH]c4ccc(O)cc34)[C@H]21`, the IC50 was 2140 nM on Histone deacetylase 2 [1], 400 nM at Histone deacetylase 1 [2] and 2150 nM in the test on HCT-116 [3].
Turning to `Cc1sc2c(c1C)C(c1ccc(Cl)cc1)=N[C@@H](CC(=O)Nc1ccc(C(=O)Nc3ccccc3N)cc1)c1nnc(C)n1-2`, in test [4], the midpoint of inhibition, the IC50, lay at 729 nM.
In the case of `CCN1CCN(c2cc(Nc3ncc(C(=O)Nc4ccccc4N)s3)ncn2)CC1`, the concentration for half-maximal inhibition (IC50) against Histone deacetylase [5] amounted to 15000 nM.
Regarding `Nc1ccccc1NC(=O)CCCCCOc1no[n+]([O-])c1S(=O)(=O)c1ccccc1`, the IC50 with HCT-116 [6] amounted to 770 nM; at Histone deacetylase 1 [7], 470 nM; against Histone deacetylase 2 [8], 1140 nM; at Histone deacetylase 3 it was 560 nM; with HeLa, 1500 nM; in the test with PC-3, 2500 nM. For the same compound, the IC50 was 410 nM in the test with HEL, 540 nM in the test on MOLT-4, 770 nM in the test on Jurkat and 980 nM in the test with A549 [9].
For orientation: inhibition means the relative decrease from the control value, in per cent. On to `CC(C)C[C@@H](NC(=O)[C@H](Cc1ccccc1)NC(=O)c1ccc(C(=O)Nc2ccccc2N)cc1)B1OC2CC3CC(C3(C)C)[C@@]2(C)O1` (some centres not stated), for which the IC50 was found to be 37.1 nM with RPMI-8226 and 112 nM in test [11]. In addition, the inhibition in test [10] was found to be 33%.
As for `CN1c2ccc(NCc3ccc(C(=O)Nc4ccccc4N)cc3)cc2C(=O)N2CCc3c([nH]c4ccccc34)[C@H]21`, the IC50 on Histone deacetylase 2 [1] is 6250 nM; against Histone deacetylase 1 [2], 1510 nM; with HCT-116 [3], 2760 nM.
For the compound `Cn1cc(-c2ccc(S(=O)(=O)n3ccc(/C=C/C(=O)Nc4ccccc4N)c3)cc2)cn1` [DOMATINOSTAT], the Activity in the test with CT26 is 53%. Also, the concentration for half-maximal inhibition (IC50) in the test on A549 [12] turned out to be 7.8 nM.
For the compound `COc1ccc(C(=O)Nc2ccc(NC(=O)Nc3ccccc3N)cc2)cc1`, the IC50 against Histone deacetylase [13] came out at 1520 nM; at Ephrin type-A receptor 2, 570 nM; in the test with HCT-116 [6], 5290 nM; in the test on MCF7, 7420 nM.
For `Nc1ccccc1NC(=O)Nc1ccc(NC(=O)c2cccnc2)cc1`, the concentration for half-maximal inhibition (IC50) came to 940 nM against Histone deacetylase [13], 680 nM on Ephrin type-A receptor 2 and 8360 nM in the test on K562 [14].
`CCN1CCN(c2cc(Nc3ncc(C(=O)Nc4ccc(F)cc4N)s3)ncn2)CC1`: the half-maximal inhibitory concentration (IC50) came out at 810 nM on Histone deacetylase [5] and 2620 nM in the test on K562 [15].
